Laboratory results as given in patent US20060073496A1, “Methods of identifying patients at risk of developing encephalitis following immunotherapy for Alzheimer's disease” (priority 2004, published 2006).
“And” between values parts separate entries of the source, which are not always exact repeats. Equal entries are not always repeated. “Also recorded” adds a separate entry of the source.

Columns and labels:
[1] = system: transgenic mouse models of cognitive impairment and amyloid plaque-associated CNS pathology; details: cited from earlier work
[2] = cited from earlier work
[3] = cited from earlier work; remark: listed apart in the source
PDAPP transgenic mouse = PDAPP transgenic mouse efficacy studies (titer needed to lessen neuropathological progression); format: in vivo
From the text: At present, the anti-AN1792 titer necessary to achieve a beneficial therapeutic effect in human AD is unknown. Whereas the PDAPP (platelet-derived growth factor-driven amyloid precursor protein) transgenic mouse develops several AD-like neuropathologies, the progression of pathology in this model may very well take a more aggressive course than in human AD, as the changes occur in months and the expression levels APP/Aβ are several fold higher than in nontransgenic species.

PBMCs = assay: Gene expression frequency (Affymetrix U133A) in PBMCs cultured overnight with AN1792 and immune adjuvant cocktail; association with encephalitis, IgG, IgM response, ApoE4 by ANOVA and GeneCluster; ratio to control culture; format: cell-based, human; details: 13 genes of Table 17, PBMCs cultured overnight, AN1792 10 μg/ml
From the text: Consent to the pharmacogenomic study was optional and obtained after approval by local institutional review boards in the U.S. (E.U. patients were not included in the pharmacogenomic study). Blood was collected from patients in the U.S. at the screening visit and was shipped overnight at room temperature to the Pharmacogenomic Laboratory in Andover, Mass. For each sample, the peripheral blood mononuclear cell (PBMC) fraction was purified by CPT fractionation, as described below, and 2×10^6 of these cells (the baseline sample, i.e., the first daughter sample for baseline measurements) were snap frozen; these represent cells that were not subject to in vitro culture (see. Example 1.1.3.1). The remaining cells were divided into four equal aliquots and cultured in vitro overnight in conditions described below. Cells were then harvested and snap frozen. […] The hypothesis behind this reasoning was that immunotherapeutic responsiveness may reflect a state of “preexisting readiness” to respond to AN1792, and this state may be reflected in the gene expression profile of PBMCs prior to immunotherapy. Accordingly, both AN1792-stimulated and control cultures were set up for each sample. Total RNA was purified from each sample, and RNA expression levels of each of 22,000 sequences were assayed, as described below. […]

[4] = Phase IIa placebo-controlled trial of AN1792 with QS-21 adjuvant: meningoencephalitis and follow-up; format: in vivo, human; details: for Meningoencephalitis patients: number of samples in pharmacogenomic study
From the text: The U.K. trial enrolled about 80 patients and the U.S. trial enrolled about 24 patients with mild to moderate AD for the Phase I trials.
Antibody responders were compared to placebo controls. […] Whole-trial analysis remains ongoing (Gilman, supra).
A total of 372 patients, 172 from the U.S. and 200 from the E.U., were enrolled in the clinical trial. […] Consent was obtained after approval by local institutional review boards.

AN1792 = assay: Postimmunization maximum anti-AN1792 IgG and IgM titer / response group of treated patients; format: in vivo, human
From the text: Relevant clinical data received from StatProbe, Inc. (Ann Arbor, Mich.) (pertaining to treatment group, maximum IgG titer for all visits, maximum IgM titer for all visits, ApoE4 type, and encephalitis status), along with demographic data and treatment group, were merged with the gene expression data by donor identification number (the randomization number that was assigned to each patient in the study).
The pharmacogenomic supplemental statistical analysis plan of this Example 1 defines IgG responders as having a maximum titer≧2200 at any time point. The maximum titer of partial IgG responders was >200<2200, and of nonresponders was ≦200. Patients with an IgM titer>100 at any time point are defined as IgM responders.
(Data from patients with maximum titers between 200 and 2200 were not used in the identification of statistically significant associations, but were analyzed once the statistical programs had identified genes of interest.)
Relevant clinical data pertaining to treatment group, maximum IgG titer for all visits, maximum IgM titer for all visits, encephalitis status, and demographic data were received from StatProbe, Inc. (Ann Arbor, Mich.). The clinical data were merged with the gene expression data by donor identification number.
Subjects were assigned to response groups based on postimmunization maximum titer during follow-up. For both IgM and IgG the response groups were: 1) nonresponders, (titer<200); 2) partial responders (200≦titer<2,200); and 3) responders (titer≧2200).

[5] = Phase I human trials of AN1792 (safety, tolerability, antibody responsiveness); format: in vivo; details: Phase I study
From the text: The U.K. trial enrolled about 80 patients and the U.S. trial enrolled about 24 patients with mild to moderate AD for the Phase I trials. […] Four of the participants developed signs of meningoencephalitis at an early phase of the clinical trial, and the trial was suspended. […] At the time the treatments were discontinued, the maximum number of immunization received was three (by 24 patients), with the majority of patients receiving two immunizations (274 patients) and two patients receiving one immunization. Ultimately, meningoencephalitis was reported in 18 of 300 immunized patients (Orgogozo (2003) supra).
Predictors of response were sought because the incidence of antibody responsiveness in the Phase I study was relatively low (48%), an incidence that would have more than doubled the number of patients required in a Phase II evaluation of efficacy (as measured by cognitive function) associated with anti-AN1792 antibody response. […] Consequently, blood samples were obtained from 123 treated U.S. patients (five of which developed meningoencephalitis) and 30 patients in the placebo group. Simultaneous analysis of the expression levels of approximately 22,000 sequences in each preimmune blood sample obtained from all consenting subjects was performed using the Affymetrix U133A GeneChip®. […]

[6] = cited from earlier work; remark: listed apart in the source
[7] = rabbit, single IM injection, tritium-labeled QS-21; cited from earlier work
[8] = system: B and T cell effector function; details: QS-21 adjuvanted immunotherapeutics in mice, rabbits and monkeys; cited from earlier work
[9] = immunization with AN1792, transgenic mice
[10] = individual AN1792-treated patients with r^2 outlier samples (33, 22, 316, 765)
[11] = individual treated patients with post-CPT neutrophils >20%, one line per patient (17, 23, 36, 44, 271, 756), listed as Immunotherapy
[12] = number of samples in pharmacogenomic study, Female, of 57 treated
[13] = number of samples in pharmacogenomic study, Male, of 66 treated
[14] = number of samples in pharmacogenomic study, Total, of 123 treated

AN1792: a peptide immunogen consisting of Aβ1-42, the section of amyloid recognized as a major component of AD-related plaques
cognitive function [1, 9]: improved cognitive function | development of AD-like amyloid plaques, neuritic dystrophy, and gliosis [1, 9]: inhibited the development of AD-like amyloid plaques, neuritic dystrophy, and gliosis | performance in memory tests ([1]; mice treated with AN1792 versus placebo): improved performance in memory tests | development of amyloid antibodies ([2]; Phase I trials, mild to moderate AD): a portion of the participants developed amyloid antibodies | tolerability in human recipients ([2]; in vivo): well tolerated | CSF tau levels and battery of neuropsychological tests ([3]; antibody responders compared to placebo controls, follow-up): gave results favoring patients with a positive IgG titer | meningoencephalitis reported, patients of immunized patients ([3]; in vivo): 18 of 300 | β-amyloid plaques in brain at autopsy ([3]; one participant who died of causes unrelated to treatment): significant areas of the brain lacked the β-amyloid plaques | lowest titers that resulted in lessening of neuropathological progression (PDAPP transgenic mouse): 1-2,000 | effect of AN1792 stimulation on gene expression frequency (AN1792-stimulated versus control culture) (PBMCs): decrease in gene expression frequency | number of patients who developed meningoencephalitis ([4]; E.U. patients): 12 | number of patients who developed meningoencephalitis ([4]; U.S. patients): 6 | Meningoencephalitis patients ([4]; Female): 5 | Meningoencephalitis patients ([4]; Total): 5 | IgG response group (AN1792; [10]): Nonresponder (of nonresponders was ≦200); also recorded: IgG responder (IgG responders as having a maximum titer≧2200 at any time point) | IgM response group (AN1792; [10]): IgM responder (maximum IgM titer>100 (responders)); also recorded: Nonresponder (maximum IgM titer<100 (nonresponders)) | Maximum IgG Titer (AN1792; [11]): 50 (3×) and 4111 and 126 and 172 | Maximum IgM Titer (AN1792; [11]): 13275 and 957 and 28554 | Treated IgG nonresponders (AN1792; [12]): 28 | Treated IgG partial responders (AN1792; [12]): 16 | Treated IgG responders (AN1792; [12]): 13 | Treated IgM nonresponders (AN1792; [12]): 16 | Treated IgM partial responders (AN1792; [12]): 21 | Treated IgG nonresponders (AN1792; [13]): 42 | Treated IgG partial responders (AN1792; [13]): 12 | Treated IgG responders (AN1792; [13]): 12 | Treated IgM nonresponders (AN1792; [13]): 28 | Treated IgM partial responders (AN1792; [13]): 18 | Treated IgG nonresponders (AN1792; [14]): 70 | Treated IgG partial responders (AN1792; [14]): 28 | Treated IgM nonresponders (AN1792; [14]): 44 | Treated IgM partial responders (AN1792; [14]): 39 | Treated IgM responders (AN1792; [14]): 40 | incidence of responsiveness (IgG titer>200), patients of treated patients (AN1792; treated U.S. patients of the pharmacogenomic study, Example 2): 53 of 123 | incidence of antibody responsiveness [5]: 48%

QS-21
white blood cell counts and creatinine kinase ([6]; rabbit toxicity studies): Slight alterations in white blood cell counts (leukocytosis and leukopenia) and creatinine kinase | organ toxicity ([6]; rabbit, single or multiple injections, QS-21 alone or combined with antigens): no significant organ toxicity | distribution [7]: highly concentrated in the lymph nodes draining the injection area | excretion [7]: Excretion occurs primarily through the kidneys | effect on immune effector function [8]: improvement in B and T cell effector function
